Data taken from BindingDB's records for doi:10.1021/jm020355o (University of Arizona, 2003).

Test: Antagonistic activity towards Melanocortin 1 receptor in Xenopus frog skin using competitive binding in the presence of 500 pM of alpha-melanocyte stimulating hormone

IC50 [µM]	SMILES
10	CC(C)[C@H](NC(=O)[C@@H]1CCC(=O)NCC(=O)N2CCC[C@H]2C(=O)N[C@H](Cc2ccccc2)C(=O)N[C@@H](CCCN=C(N)N)C(=O)N[C@@H](Cc2c[nH]c3ccccc23)C(=O)N1)C(=O)N[C@H](C(=O)NCC(N)=O)C(C)C [19-Benzyl-16-(3-guanidino-propyl)-13-(1H-indol-3-ylmethyl)-4,7,12,15,18,21-hexaoxo-docosahydro-3a,6,11,14,17,20-hexaaza-cyclopentacycloicosene-10-carboxylic acid {1-[1-(carbamoylmethyl-carbamoyl)-2-methyl-propylcarbamoyl]-2-methyl-propyl}-amide]
0.637	CC(C)[C@H](NC(=O)[C@@H]1CCC(=O)NCC(=O)N2CCC[C@H]2C(=O)N[C@H](Cc2ccc3ccccc3c2)C(=O)N[C@@H](CCCN=C(N)N)C(=O)N[C@@H](Cc2c[nH]c3ccccc23)C(=O)N1)C(=O)N[C@H](C(=O)NCC(N)=O)C(C)C [c[Gly-Pro-D-Nal(2')-Arg-Trp-Glu]-Val-Val-Gly-NH2]
1.5	CC(C)[C@H](NC(=O)[C@@H]1CCC(=O)N2CCC[C@H]2C(=O)N[C@H](Cc2ccc3ccccc3c2)C(=O)N[C@@H](CCCN=C(N)N)C(=O)N[C@@H](Cc2c[nH]c3ccccc23)C(=O)N1)C(=O)N[C@H](C(=O)NCC(N)=O)C(C)C [c[Pro-D-Nal(2')-Arg-Trp-Glu]-Val-Val-Gly-NH2]
